Assays:
[1] = tested on: murine splenocytes (BALB/c and DBA/2 mice); test: Mixed lymphocyte reaction (MLR), bi-directional, [3H]-thymidine proliferation; type: cell-based, murine (BALB/c and DBA/2 mice); conditions: Mus musculus, Splenocyte, 96 hours
Method: Mixed lymphocyte reaction (MLR).
Bi-directional MLR was carried out using murine cells. Splenocytes were prepared from BALB/c and DBA/2 mice (18-20 g) Charles River, Calco, Italy). Briefly, single cell suspensions were isolated from spleen by Ficoll-Hypaque (biochrom, Berlin, Germany) density gradient centrifugation. 5×10^4 splenocytes from each preparation was cultured for 96 hours in triplicate in 96-well round-bottom plates (Nunc, Roskilde, Denmark), in the absence or presence of serial dilutions of the tested compounds. All compounds were dissolved in dimethyl sulfoxide (DMSO) to a final 20 mM concentration and then diluted into the culture medium used for the cell assay. To take into account a possible interference from DMSO, each experiment included a control in which the DMSO concentration was made equal to those of compound-treated cultures. Culture medium used was RPMI 1640 (Biochrom, Berlin, Germany), supplemented with 5% foetal bovine serum (Hyclone Laboratories Inc., Logan, Utah), 50 μm 2-mercaptoethanol, 2 mM L-glutamine, 0.1 mM non-essential amino acids, 1 mM sodium pyruvate, 100 IU/ml penicillin, and 100 μg/ml streptomycin. During the last 18 hours of culture, cells were pulsed with 1 μCi of [^3 H]-thymidine (Amersham, UK) and then harvested onto glass fiber filters by means of a cell harvester. Radioacivity, proportional to proliferation, was measured with a β-counter.

[2] = tested on: CD2; test: Inhibition of lymphocyte activation antigens expression: CD2 (OKT3-stimulated PBMC, flow cytometry); type: cell-based; conditions: human PBMC, 24 hr
Method: (§1) Inhibition of lymphocyte activation antigens expression.
(§2) Human peripheral blood mononuclear cells (PBMC) from healthy donors were separated by Ficoll-Hypaque density-gradient centrifugation. The cells recovered were suspended in culture medium (RPMI 1640 supplemented with 10% foetal bovine serum, 2 mM L-glutamine, 100 IU/ml penicillin and 100 μg/ml streptomycin).
(§3) PBMC, suspended at a density of 10^6 cells/ml in culture medium, were incubated in 24-well plates (Costar, Cambridge, Mass.) with the tested compounds and, 30 min later, stimulated with optimal concentration of the monoclonal antibodies OKT3 (Ortho Diagnostic Inc., Raritan, N.J.) for 24 hr at 37° C. and under 5% CO2. At the end of incubation, cells were washed twice with PBS containing 2% human serum (Irvine Scientific, Irvine, Calif.) and then incubated with fluorescein isothiocyanate (FITC)-conjugated monoclonal antibodies (Mab) for 30 min on ice. Cells were then washed as above and fluorescence analysis was performed by flow-cytometry on a FACScan (Becton-Dickinson, Mountain View, Calif.). The Mabs used were anti-Leu5b (CD2), anti-Interleukin-2 receptor (CD25) and anti transferrin receptor (CD71). Fluorescence background was determined by incubating the cells with FITC-conjugated mouse IgG of the relevant isotype. Forward- and right-angle scatter were set in order to include lymphocytes and lymphoblasts. The results, expressed as percentage of inhibition of mean fluorescence (MF), were calculated as follows: [formula]

[3] = tested on: CD25; test: Inhibition of lymphocyte activation antigens expression: CD25 (OKT3-stimulated PBMC, flow cytometry); type: cell-based; conditions: human PBMC, 24 hr
Method: as §1, §2, §3

[4] = tested on: CD71; test: Inhibition of lymphocyte activation antigens expression: CD71 (OKT3-stimulated PBMC, flow cytometry); type: cell-based; conditions: human PBMC, 24 hr
Method: as §1, §2, §3

[5] = tested on: adjuvant arthritis (complete Freund's adjuvant); test: Adjuvant arthritis in the rat; type: in vivo, rat (male Lewis); conditions: p.o. daily
[6] = tested on: antigen-induced paw edema (KLH-immunised BALB/c mice); test: Antigen-induced paw edema in the mouse; type: in vivo, mouse (female BALB/c); conditions: daily day 0 to day 13, 8 hours after challenge
Method: Antigen-induced paw edema in the mouse.
Groups of 4-8 female BALB/c mice (20-22 g; Charles River, Calco, Italy) were immunised at days 0 and 7 with two s.c. injections, of keyhole limpet hemocyanin (KLH, 100 μg/mouse; Sigma Chemicals, S. Louis, Mo.) emulsified in 0.2 ml complete Freund's adjuvant (CFA, Sigma Chemicals, S. Louis, Mo.). Non-immunised mice (Control) were treated with CFA alone. On day 14, immunised mice were challenged in the hind footpad with 20 μg KLH suspended in physiological solution. Eight hours after antigen challenge the edema was quantified measuring the dorsal-ventral thickness of the footpad with a scientific micrometer (Borletti, Italy). To evaluate their immunosuppressive activity, the compounds were administered daily from day 0 to day 13.

| Structure (SMILES) | IC50 [1] [µM] | IC50 [2] [µM] | IC50 [3] [µM] | IC50 [4] [µM] | Inhibition (%) of arthritis score ([5]; Day 14) [%] | Arthritis score ([5]; Day 14, vehicle score 3.6 ± 0.5) | Inhibition (%) of arthritis score ([5]; Day 17) [%] | Arthritis score ([5]; Day 17, vehicle score 4.8 ± 0.4) | Inhibition (%) of arthritis score ([5]; Day 21) [%] | Arthritis score ([5]; Day 21, vehicle score 4.8 ± 0.6) | Percentage of inhibition of edema formation ([6]; 10 mg/Kg i.p.) [%] | Percentage of inhibition of edema formation ([6]; 10 mg/Kg p.o.) [%] |
| --- | --- | --- | --- | --- | --- | --- | --- | --- | --- | --- | --- | --- |
| CC(O)=C(C(=O)Nc1ccc(C(F)(F)F)cc1)C(=O)Nc1ccc(C(F)(F)F)cc1 [Example 1, N-(4-trifluoromethylphenyl)-2-(4-trifluoromethylphenylcarbamoyl)-3-hydroxybut-2-enamide] | 11.9 ± 0.1 | 15.3 | 18.4 | 18.8 |  |  |  |  |  |  |  |  |
| O=C(Nc1ccc(C(F)(F)F)cc1)C1=C(O)COC1=O [Example 2, N-(4-trifluoromethylphenyl)-4-hydroxy-2-oxo-(5H)-furan-3-carboxamide] | 3.4 ± 1.1 | 13.8 | 14.8 | 66.5 |  |  |  |  |  |  |  |  |
| O=C1CCC(O)=C1C(=O)Nc1ccc(C(F)(F)F)cc1 [Example 3] | 1.25 ± 0.2 | 2.9 | 2.9 | 11 | 42 | 2.1 ± 0.1 | 46 | 2.6 ± 0.1 | 19 | 3.9 ± 0.2 |  |  |
| O=C1CCCC(O)=C1C(=O)Nc1ccc(C(F)(F)F)cc1 [Example 4] | 45.9 ± 29.5 | 95.4 | > 100 | > 100 |  |  |  |  |  |  |  |  |
| O=C(Nc1ccc(C(F)(F)F)cc1)c1ccccc1O [Example 5, N-(4-trifluoromethylphenyl)-2-hydroxy-benzamide] | 1.65 ± 0.1 | 3 | 2.4 | 4.4 |  |  |  |  |  |  | 37 |  |
| Cc1oncc1C(=O)Nc1ccc(C(F)(F)F)cc1 [Leflunomide, 5-methyl-N-(4-trifluoromethylphenyl)isossazole-4-carboxamide] | 9.6 ± 3.1 | 126 | 130 | > 100 |  |  |  |  |  |  |  | 43 |
